Test results published in patent publication US20110086759A1, “CHEMICAL COMPOUNDS” (SYNGENTA CROP PROTECTION, INC., priority 2007, published 2011).

What was measured:
Type in all cases: in vivo
[1] = tested on: Ipomea hederaceae (IPOHE); assay: Pre-emergence biological efficacy, glasshouse pot test; details: Ipomoea hederacea, 312 h; pre-emergence, 1,000 g/ha, evaluated after 13 days (100=total damage; 0=no damage); read-out: Percentage damage IPOHE
Procedure, shortened: (§1)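 Compound was applied as a spray one day after sowing, at a final dose of 1000 or 250 g/ha. Plants grew under 14 h light, 24/16 °C and 65% humidity, and injury was assessed on day 13 on a 0–100 scale.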

Solanum nigrum (SOLNI) [2] = assay: as above; details: 312 h, pre-emergence, 1,000 g/ha, evaluated after 13 days (100=total damage; 0=no damage), read-out: Percentage damage SOLNI
Procedure, shortened: as §1

Setaria faberi (SETFA) [3] = assay: as above; details: 312 h, pre-emergence, 1,000 g/ha, evaluated after 13 days (100=total damage; 0=no damage), read-out: Percentage damage SETFA
Procedure, shortened: as §1

[4] = tested on: Echinochloa crus-galli (ECHCG); assay: as above; details: 312 h, pre-emergence, 1,000 g/ha, evaluated after 13 days (100=total damage; 0=no damage), read-out: Percentage damage ECHCG
Procedure, shortened: as §1

[5] = tested on: Amaranthus retoflexus (AMARE); assay: as above; details: Amaranthus retroflexus, 312 h; pre-emergence, 1,000 g/ha, evaluated after 13 days (100=total damage; 0=no damage); read-out: Percentage damage AMARE
Procedure, shortened: as §1

[6] = tested on: Alopecurus myosuroides (ALOMY); assay: as above; details: 312 h, pre-emergence, 1,000 g/ha, evaluated after 13 days (100=total damage; 0=no damage), read-out: Percentage damage ALOMY
Procedure, shortened: as §1

[7] = tested on: Ipomea hederaceae (IPOHE); assay: Post-emergence biological efficacy, glasshouse pot test; details: Ipomoea hederacea, 312 h; post-emergence, 1,000 g/ha, evaluated after 13 days (100=total damage; 0=no damage); read-out: Percentage damage caused to weed species, IPOHE
Procedure, shortened: (§2)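 Plants were sown in standard soil and grown 8 days in a glasshouse (24/16° C. day/night, 14 hours light, 65% humidity), then sprayed post-emergence at 1000 or 250 g/ha from acetone/water (50:50) with 0.5% Tween 20. Damage was scored visually after 13 days (0 = none, 100 = total).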

Solanum nigrum (SOLNI) [8] = assay: as above; details: 312 h, post-emergence, 1,000 g/ha, evaluated after 13 days (100=total damage; 0=no damage), read-out: Percentage damage caused to weed species, SOLNI
Procedure, shortened: as §2

Setaria faberi (SETFA) [9] = assay: as above; details: 312 h, post-emergence, 1,000 g/ha, evaluated after 13 days (100=total damage; 0=no damage), read-out: Percentage damage caused to weed species, SETFA
Procedure, shortened: as §2

[10] = tested on: Echinochloa crus-galli (ECHCG); assay: as above; details: 312 h, post-emergence, 1,000 g/ha, evaluated after 13 days (100=total damage; 0=no damage), read-out: Percentage damage caused to weed species, ECHCG
Procedure, shortened: as §2

[11] = tested on: Amaranthus retoflexus (AMARE); assay: as above; details: Amaranthus retroflexus, 312 h; post-emergence, 1,000 g/ha, evaluated after 13 days (100=total damage; 0=no damage); read-out: Percentage damage caused to weed species, AMARE
Procedure, shortened: as §2

[12] = tested on: Alopecurus myosuroides (ALOMY); assay: as above; details: 312 h, post-emergence, 1,000 g/ha, evaluated after 13 days (100=total damage; 0=no damage), read-out: Percentage damage caused to weed species, ALOMY
Procedure, shortened: as §2

Compound	pest or weed control at 1000 g/ha [1] [%]	pest or weed control at 1000 g/ha (Solanum nigrum (SOLNI) [2]) [%]	pest or weed control at 1000 g/ha (Setaria faberi (SETFA) [3]) [%]	pest or weed control at 1000 g/ha [4] [%]	pest or weed control at 1000 g/ha [5] [%]	pest or weed control at 1000 g/ha [6] [%]	pest or weed control at 1000 g/ha [7] [%]	pest or weed control at 1000 g/ha (Solanum nigrum (SOLNI) [8]) [%]	pest or weed control at 1000 g/ha (Setaria faberi (SETFA) [9]) [%]	pest or weed control at 1000 g/ha [10] [%]	pest or weed control at 1000 g/ha [11] [%]	pest or weed control at 1000 g/ha [12] [%]
COC(=O)c1nc(C2CC2)nc(NC(c2ccccc2)c2ccccc2)c1Cl [Compound 4-277, 5-Chloro-2-cyclopropyl-4-(diphenylmethyl-amino)-6-methoxy-carbonylpyrimidine]	40	0	0	0	0	0	70	50	50	50	90	30
COC(=O)c1nc(C2CC2)nc(NC(c2ccccc2)c2ccc(Cl)cc2)c1Cl (stereo not drawn) [Compound 4-278, 5-Chloro-4-[(4-chlorophenyl)-(phenyl)-methylamino]-2-cyclopropyl-6-methoxycarbonyl-pyrimidine]	20	10	10	10	40	0	60	30	40	20	90	10
COC(=O)c1nc(C2CC2)nc(NC(Cc2ccccc2)c2ccccc2)c1Cl (stereo not drawn) [Compound 4-279, 5-Chloro-2-cyclopropyl-4-(1,2-diphenylethyl-amino)-6-methoxy-carbonylpyrimidine]	60	70	0	0	20	10	60	70	40	0	90	10
COC(=O)c1nc(C2CC2)nc(NC(Cc2ccccc2)C(=O)OC)c1Cl (stereo not drawn) [Compound 4-283, 5-Chloro-2-cyclopropyl-6-methoxycarbonyl-4-(1-methoxy-carbonyl-2-phenylethylamino)-pyrimidine]	100	100	80	70	100	40	70	80	60	60	100	20
COC(=O)c1nc(C2CC2)nc(NC(Cc2ccc(F)cc2)C(=O)OC)c1Cl (stereo not drawn) [Compound 4-284, 5-Chloro-2-cyclopropyl-4-[2-(4-fluorophenyl)-1-methoxycarbonyl-ethylamino]-6-methoxycarbonyl-pyrimidine]	100	90	30	30	100	20	100	80	40	20	100	30
COC(=O)c1nc(C2CC2)nc(NC(Cc2c[nH]c3ccccc23)C(=O)OC)c1Cl (stereo not drawn) [Compound 4-290, 5-Chloro-2-cyclopropyl-4-(2-indol-3-yl-1-methoxycarbonyl-ethylamino)-6-methoxycarbonyl-pyrimidine]	90	80	30	40	80	20	70	80	50	30	100	30
